# Patent publication US20250288518A1, “METHODS OF USING RADIPRODIL IN THE TREATMENT OF DISORDERS” (GRIN Therapeutics, Inc., priority 2023, published 2025)
# Where “and” joins values, the source holds several entries; their conditions need not be identical. Equal values may be shown once. Read-outs that look alike come from different tables or passages of the source.
# How the values were obtained:
# [1] = system: pentylenetetrazole (PTZ)-induced generalized clonic-tonic seizures; assay: juvenile PTZ rat model; format: in vivo
# Protocol: (§1) Radiprodil anticonvulsant efficacy was specifically tested in rats at different time points during postnatal development, using pentylenetetrazole (PTZ) as a convulsant, to induce generalized clonic-tonic seizures. The activity of radiprodil in this juvenile PTZ rat model was tested up to 30 mg/kg, showing efficacy at a dose of 1 mg/kg. The calculated free plasma fraction of an orally administered 1 mg/kg dose is expected to give around 60% occupancy of the NR2B receptor, based on an ex-vivo occupancy study in rodents and assuming a 1:1 brain to plasma ratio, see below for further details.
# NR2B receptor = biological target: T1, NR2B receptor (Rattus norvegicus, UniProt P35439+Q00960); assay: NR2B occupancy at rat doses, based on ex-vivo occupancy study in rodents
# T1 construct: occupancy of the NR2B receptor, based on an ex-vivo occupancy study in rodents; from tissue; host or cells: rodent brain (ex vivo occupancy; brain is implied by the 1:1 brain to plasma ratio)
# T1 sequence (Q00960 27-1482, other chains not shown): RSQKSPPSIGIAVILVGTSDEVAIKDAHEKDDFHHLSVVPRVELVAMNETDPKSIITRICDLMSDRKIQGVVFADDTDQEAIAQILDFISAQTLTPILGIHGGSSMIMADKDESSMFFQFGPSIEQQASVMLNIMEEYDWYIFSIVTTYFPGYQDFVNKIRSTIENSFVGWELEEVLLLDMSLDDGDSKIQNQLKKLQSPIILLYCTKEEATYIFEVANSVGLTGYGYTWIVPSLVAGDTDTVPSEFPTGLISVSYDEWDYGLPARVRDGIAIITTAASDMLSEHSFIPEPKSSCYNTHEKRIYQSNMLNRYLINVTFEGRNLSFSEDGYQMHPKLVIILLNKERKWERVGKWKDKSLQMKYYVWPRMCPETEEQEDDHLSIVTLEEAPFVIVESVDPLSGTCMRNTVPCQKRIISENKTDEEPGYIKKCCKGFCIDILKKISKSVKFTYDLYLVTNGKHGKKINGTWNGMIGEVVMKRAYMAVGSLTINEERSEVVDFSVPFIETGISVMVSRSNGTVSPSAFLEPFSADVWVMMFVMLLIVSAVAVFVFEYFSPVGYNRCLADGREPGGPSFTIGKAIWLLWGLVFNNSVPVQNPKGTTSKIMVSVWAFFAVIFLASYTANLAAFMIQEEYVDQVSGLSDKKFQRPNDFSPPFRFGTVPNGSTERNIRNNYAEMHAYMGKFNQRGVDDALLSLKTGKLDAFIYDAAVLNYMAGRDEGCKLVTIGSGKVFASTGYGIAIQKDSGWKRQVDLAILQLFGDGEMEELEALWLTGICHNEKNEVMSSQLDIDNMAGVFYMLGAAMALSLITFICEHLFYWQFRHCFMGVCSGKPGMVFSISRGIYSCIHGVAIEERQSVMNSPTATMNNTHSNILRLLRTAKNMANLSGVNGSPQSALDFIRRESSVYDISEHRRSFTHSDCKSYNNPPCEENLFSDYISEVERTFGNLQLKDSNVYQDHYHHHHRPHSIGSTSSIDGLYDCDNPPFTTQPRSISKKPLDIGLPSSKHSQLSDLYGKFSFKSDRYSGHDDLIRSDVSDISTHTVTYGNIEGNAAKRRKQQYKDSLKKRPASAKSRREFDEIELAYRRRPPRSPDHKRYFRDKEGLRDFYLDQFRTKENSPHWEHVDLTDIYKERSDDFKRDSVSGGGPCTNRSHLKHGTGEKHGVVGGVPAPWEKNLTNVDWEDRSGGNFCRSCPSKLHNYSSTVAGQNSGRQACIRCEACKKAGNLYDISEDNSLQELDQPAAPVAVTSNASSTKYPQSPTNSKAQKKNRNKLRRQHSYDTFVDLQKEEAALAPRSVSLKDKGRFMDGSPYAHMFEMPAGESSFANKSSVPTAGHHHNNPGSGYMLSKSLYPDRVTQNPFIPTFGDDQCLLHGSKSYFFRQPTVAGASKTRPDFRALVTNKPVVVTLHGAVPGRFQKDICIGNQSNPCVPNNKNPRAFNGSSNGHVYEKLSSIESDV
# Protocol: as §1
# audiogenic seizures = assay: audiogenic seizure model (generalized seizures); format: in vivo; details: adult mice
# in vivo [2] = details: rat
# in vivo [3] = details: dog
# [4] = 9-month dog toxicology study; format: in vivo; details: 1.5 mg/kg/day
# [5] = system: countable motor seizure (CMS); assay: phase 1B study, seizure cohort: efficacy; format: in vivo, human
# Description: Investigational Product (IP): Radiprodil. This example describes an open-label, multicenter phase 1B study being conducted to evaluate the safety, tolerability, and pharmacokinetics (PK) of multiple individually titrated doses of radiprodil and to assess the treatment effect on seizures in participants with drug-resistant seizures caused by gain-of-function (GoF) variants in the GRIN1, GRIN2A, GRIN2B, or GRIN2D genes (GRIN2B GoF variants in the US only).
# (§2) This is a global, open-label, multicenter, phase 1B study to evaluate the safety, tolerability, and PK of multiple individually titrated doses of radiprodil and to assess the treatment effect on seizures and behavioral symptoms in 2 cohorts of pediatric participants: 1 cohort of participants with drug resistant seizures (with or without behavioral symptoms) (Cohort 1) and 1 cohort of participants with behavioral symptoms (but no qualifying seizures) (Cohort 2) caused by GoF variants in the GRIN1, 2A, 2B, or 2D genes (GRIN2B GoF variants only in the US). These GoF variants are gene mutations that cause an increased sensitivity of NMDA receptors to glutamate or through decreased inhibition by magnesium, altered affinity to glycine, or other relevant changes considered to increase NMDA transmission. Drug-resistant seizures are defined as a failure to respond to at least 2 antiseizure medication (ASM) therapies taken at adequate doses for an appropriate duration with assured medication adherence as determined by the treating physician. Participants with seizures to be enrolled in the first cohort should have at least 1 observable motor seizure per week and ≥4 observable motor seizures in the prospective 4-week Observation Period.
# A seizure cohort of patients from 6 months to 12 years of age with known GoF variants confirmed via method described in Myers, et al., Hum Mol Genetics. 2023, 32:2857-2871, was enrolled. The patients had drug-resistant seizures with or without behavioral symptoms. Patients also had ≥1 weekly countable motor seizure (CMS) with ≥4 generalized or focal seizures during the observation period. Motor seizures included drop seizures; generalized onset seizures included tonic-clonic, tonic, bilateral clonic, atonic, myoclonic-atonic, and myoclonic-tonic-clonic seizures; and focal seizures included seizures with bilateral hyperkinetic motor features and clonic seizures.
# Primary endpoints included safety, tolerability, and radiprodil plasma concentrations. Key secondary endpoints (aka, change from baseline in observable daily CMS frequency using an electronic diary (eDiary)), included ≥50%, ≥90%, and 100% reductions from baseline in seizure frequency; proportion of seizure-free days; and Clinical Global Impressions of Change (CGI-C) and Caregiver Global Impressions of Change (CaGI-C), from baseline to the end of the maintenance period.
# [6] = phase 1B study, seizure cohort: treatment emergent adverse events; format: in vivo
# Description: The primary objectives of this study are to determine the safety and tolerability of multiple individually titrated doses of radiprodil as an add-on therapy to standard of care (SOC) in pediatric participants; establish a safe and well-tolerated dose; and to determine the pharmacokinetics (PK) and plasma exposure of radiprodil. Endpoints of these primary objectives include: adverse events (AEs), serious adverse events (SAEs), and adverse drug reactions (ADRs) (frequency, type, severity, and duration); changes in vital signs; physical examination findings; 12-lead electrocardiogram (ECG) findings; clinically significant changes in laboratory parameters; emergence of new seizure types; occurrence of suicidal ideation or behavior; determination of the maximum tolerated dose of radiprodil based on safety and tolerability data; and plasma concentrations of radiprodil.
# Pyrexia, diarrhoea, and respiratory tract infection were the most common TEAEs. Three patients experienced SAEs, all unrelated to radiprodil treatment. One each of adenovirus infection, bronchiolitis, and viral pneumonia
# behavioral symptoms = assay: phase 1B study, behavioral cohort: global impressions of change; format: in vivo, human; details: clinicians and caregivers
# Description: as §2
# A behavioral cohort of patients from 6 months to 12 years of age with known GoF variants confirmed via method described in Myers, et al., Hum Mol Genetics. […]
# [7] = phase 1B study, behavioral cohort: treatment emergent adverse events; format: in vivo, human
# Description: Pyrexia, diarrhoea, and respiratory tract infection were the most common TEAEs. Three patients experienced SAEs, all unrelated to radiprodil treatment. One each of adenovirus infection, bronchiolitis, and viral pneumonia.
# [8] = Phase 1 study of normal healthy human subjects, 45 mg Radiprodil (30% Formulation) fed and fasted; format: in vivo; details: for AUC(0-inf) / AUC(0-t) / Cmax: human, in vivo, oral; for AUC(0-inf): read-out: AUCinf Geometric LSM; for AUC(0-t): read-out: AUClast Geometric LSM; for Cmax: read-out: Cmax Geometric LSM
# [9] = cited from earlier work
# [10] = 135 mg daily (45 mg tid) up to 14 weeks; cited from earlier work
# [11] = all unrelated to radiprodil treatment
# [12] = 2 participants, doses up to 0.2 mg/kg bid
structure (smiles),measurement,setting,value
O=C(Nc1ccc2[nH]c(=O)oc2c1)C(=O)N1CCC(Cc2ccc(F)cc2)CC1 [Radiprodil],tonic phases of PTZ-induced convulsions,"[1]; 10 mg/kg, postnatal day 12 and postnatal day 18 rats",completely blocked
same,dose showing efficacy in juvenile PTZ rat model,[1]; tested up to 30 mg/kg,1 mg/kg
same,NR2B occupancy,NR2B receptor; 10 mg/kg,~90%
same,occupancy of the NR2B receptor,"NR2B receptor; orally administered 1 mg/kg, calculated free plasma fraction, 1:1 brain to plasma ratio assumed",around 60%
same,anticonvulsant efficacy in audiogenic seizure model,audiogenic seizures,anticonvulsant activity in the same range of doses/exposures
same,AUC,in vivo [2],9550 ng·h/mL
same,AUC0-24h at NOAEL,in vivo [2],"9,555 ng×h/mL"
same,AUC(0-t),in vivo [2],9560 ng·h/mL
same,Cmax,in vivo [2],1400 ng/mL
same,Cmax at NOAEL,in vivo [2],1404 ng/mL
same,NOAEL at 4 weeks,in vivo [2],100 mg/kg/day
same,exposure (total Cmax and AUC) of 0.05 mg/kg bid lower than NOAEL exposure,in vivo [2],more than 20 fold
same,NOAEL,in vivo [2]; 4 weeks,100 mg/kg/day
same,NOAEL at 13 weeks,in vivo [3],1.5 mg/kg/day
same,AUC(0-t),in vivo [3]; 1.5 mg/kg/day,3750 ng·h/mL
same,Cmax,in vivo [3]; 1.5 mg/kg/day,722 ng/mL
same,AUC(0-t),"[4]; dog, plasma, at 6-months, read-out: average AUC0-24h",7060 ng·h/mL
same,seizures or convulsions,[4]; up to 6 months,no seizures or convulsions were observed
same,median reduction in CMS,[5]; 8-week maintenance period,~86%
same,patients seizure-free during 80% of days,[5]; 8-week maintenance period,6 of 7
same,patients with reduction in CMS of 100%,[5]; 8-week maintenance period,14.3%
same,patients with reduction in CMS of ≥50%,[5]; 8-week maintenance period,71.4%
same,patients with reduction in CMS of ≥90%,[5]; 8-week maintenance period,42.9%
same,patients with reductions from baseline in CMS frequency,[5]; seizure cohort,6 of 7
same,CGI-C and CaGI-C,"[5]; seizure cohort, clinicians and caregivers",clinical improvement in most patients
same,"Abnormal behavior, %",[6]; Seizure Cohort (n = 8),(12.5) %
same,"Agitation, %",[6]; Seizure Cohort (n = 8),(12.5) %
same,"Any TEAE, %",[6]; Seizure Cohort (n = 8),(100) %
same,"Cough, %",[6]; Seizure Cohort (n = 8),(25.0) %
same,"Diarrhoea, %",[6]; Seizure Cohort (n = 8),(25.0) %
same,"Dystonia, %",[6]; Seizure Cohort (n = 8),(25.0) %
same,"Fatigue, %",[6]; Seizure Cohort (n = 8),(12.5) %
same,"Gastroenteritis, %",[6]; Seizure Cohort (n = 8),(25.0) %
same,"Pyrexia, %",[6]; Seizure Cohort (n = 8),(50.0) %
same,"Respiratory tract infection, %",[6]; Seizure Cohort (n = 8),(25.0) %
same,patients with SAEs,[6]; [11],Three
same,tolerability,[6]; seizure cohort,generally well-tolerated
same,CGI-C and CaGI-C,behavioral symptoms,clinical improvement in most patients
same,"Abnormal behavior, %",[7]; Behavioral Cohort (n = 7),28.6%
same,"Agitation, %",[7]; Behavioral Cohort (n = 7),28.6%
same,"Any TEAE, %",[7]; Behavioral Cohort (n = 7),85.7%
same,"Cough, %",[7]; Behavioral Cohort (n = 7),14.3%
same,"Diarrhea, %",[7]; Behavioral Cohort (n = 7),28.6%
same,"Dystonia, %",[7]; Behavioral Cohort (n = 7),14.3%
same,"Fatigue, %",[7]; Behavioral Cohort (n = 7),28.6%
same,"Gastroenteritis, %",[7]; Behavioral Cohort (n = 7),14.3%
same,"Pyrexia, %",[7]; Behavioral Cohort (n = 7),14.3%
same,"Respiratory tract infection, %",[7]; Behavioral Cohort (n = 7),28.6%
same,patients with SAEs,[7]; [11],Three
same,tolerability,[7]; behavioral cohort,generally well-tolerated
same,AUCinf Geometric LSM Ratio (Fed/Fasted),[8],148.4%
same,AUClast Geometric LSM Ratio (Fed/Fasted),[8],155.8%
same,Cmax Geometric LSM Ratio (Fed/Fasted),[8],259.6%
same,AUC(0-inf),[8]; Fasted,1890 ng·h/mL
same,AUC(0-t),[8]; Fasted,1780 ng·h/mL
same,Cmax,[8]; Fasted,81.3 ng/mL
same,AUC(0-inf),[8]; Fed,2810 ng·h/mL
same,AUC(0-t),[8]; Fed,2770 ng·h/mL
same,Cmax,[8]; Fed,211 ng/mL
same,AUC0-4,[9]; [12],up to 1036 ng×h/mL
same,AUC(0-t),[9]; [12],up to 1036 ng×h/mL
same,Cmax,[9]; [12],up to 208 ng/mL
same,safety and tolerability,"[9]; 3 infants, treatment for up to 34 days",safe and well tolerated
same,AUC,[10],9000 ± 2387 ng·h/mL
same,AUC0-24h,[10],6875 ng·h/mL
same,Cmax,[10],487 ± 129 ng/mL and 482 ± 129 ng/mL
